{
  "source": "patent US7312219B2",
  "about": "“Heteroaromatic inhibitors of fructose 1,6-bisphosphatase” (Metabasis Therapeutics, Inc., priority 1998, dated 2007)",
  "key": {"[1]": {"tested_on": "Fasted Rats", "test": "Blood Glucose Lowering Following Intravenous Administration to Fasted Rats", "format": "in vivo, rat", "conditions": "18 h fasted Sprague Dawley rats, relative to saline-treated controls", "procedure": "Inhibitors were disolved in water and the solution adjusted to neutrality with NaOH. Blood samples were obtained from the tail vein of conscious animals just prior to injection and after 1 hour. Blood glucose was measured using a HemoCue Inc. glucose analyzer according to the instructions of the manufacturer."}, "[2]": {"test": "Analysis of Drug Levels and Liver Accumulation in Rats", "format": "in vivo, rat", "conditions": "Sprague-Dawley, rat, iv; fasted rats, 10 mgs/kg i.v., one hour post injection, plasma; read-out: Plasma Conc.", "procedure": "The compound was dissolved in water and the solution adjusted to neutrality with NaOH. One hour post injection rats were anesthetized with halothane and a liver biopsy (approx. 1 g) was taken as well as a blood sample (2 ml) from the posterior vena cava. A heparin flushed syringe and needle were used for blood collection. The liver sample was immediately homogenized in ice-cold 10% perchloric acid (3 ml), centrifuged, and the supernatant neutralized with ⅓rd volume of 3 M KOH/3 M KHCO3. […] Plasma was prepared from the blood sample by centrifugation and extracted by addition of methanol to 60% (v/v). The methanolic extract was clarified by centrifugation and filtration and then analyzed by HPLC as described above."}, "[3]": {"tested_on": "Fasted Rat", "test": "Glucose Lowering Following Oral Administration to the Fasted Rat", "format": "in vivo", "conditions": "oral gavage, 18-hour fasted rats, dose 30 mg/kg, time point 2 h, relative to saline controls", "procedure": "Compounds were administered by oral gavage to 18-hour fasted, Sprague Dawley rats (250–300 g, n =3/4/group). Phosphonic acids were prepared in deionized water, and the solution adjusted to neutrality with solidum hydroxide. Prodrugs were dissolved in polyethylene glycol (mw 400). […] The table below indicates the maximum glucose lowering achieved relative to control animals dosed with saline."}, "[4]": {"tested_on": "Zucker Diabetic Fatty rats", "test": "Blood Glucose Lowering in Zucker Diabetic Fatty Rats, Oral", "format": "in vivo, rat", "procedure": "Zucker Diabetic Fatty rats were purchased from Genetics Models Inc. (Indiannapolis, Ind.) at 8 weeks of age and fed the recommended Purina 5008 diet. At the age of 12 weeks, 16 animals with fed blood glucose levels between 500 and 700 mg/dl were selected and divided into two groups (n=8) with statistically equivalent average blood glucose levels. […] The drug solution for this treatment was prepared at 25 mg/ml in deionized water and adjusted to neutrality by dropwise addition of 5 N NaOH. A second group of rats (n=8) was dosed orally with saline, in parallel. Blood glucose was measured in each rat just prior to drug or saline administration and 6 hours post administration. A HemoCue blood glucose analyzer (HemoCue Inc., Mission Viejo, Calif.) was used for these measurements according to the manufacturer's instructions."}, "[5]": {"tested_on": "Zucker Diabetic Fatty rats", "test": "Blood Glucose Lowering in Zucker Diabetic Fatty Rats, Intravenous", "format": "in vivo, rat", "conditions": "six hour time point", "procedure": "12-week old Zucker Diabetic Fatty rats (Genetics Models Inc., Indiannapolis, Ind.) maintained on Purina 5008 diet were instrumented with tail artery and tail vein catethers at 8 am on the day of the study. Food was removed for the remainder of the day. […] Blood samples were obtained from the tail artery catheter at the start of the infusions, and at hourly intervals thereafter. Glucose was measured in the samples by means of a HemoCue analyzer (HemoCue Inc., Mission Viejo, Calif.) according to the manufacturer's instructions."}, "[6]": {"tested_on": "Gluconeogenesis in Zucker Diabetic Fatty Rats", "test": "Inhibition of Gluconeogenesis by FBPase Inhibitor in Zucker Diabetic Fatty Rats (14C-bicarbonate to 14C-glucose)", "format": "in vivo, rat", "conditions": "after 6-hour infusion at 3 mg/kg/h, n=3/group", "procedure": "Following a 6-hour infusion of 3.26 at 3 mg/kg/h or saline to Zucker Diabetic Fatty rats (n=3/group) as described in Example K, a bolus of ^14C-bicarbonate (40 μCi/100 g body weight) was administered via the tail vein catheter. 20 minutes later, a blood sample (0.6 mL) was taken via the tail artery. Blood (0.5 ml) was diluted into 6 mL deionized water and protein precipitated by addition of 1 mL zinc sulfate (0.3 N) and 1 mL barium hydroxide (0.3 N). The mixture was centrifuged (20 minutes, 1000×g) and 5 mL of the resulting supernatant was then combined with 1 g of a mixed bed ion exchange resin (1 part AG 50W-X8, 100–200 mesh, hydrogen form, and 2 parts AG 1-X8, 100–200 mesh, acetate form) to separate ^14-C-bicabonate from ^14C-glucose. The slurry was shaken at room temperature for four hours and then allowed to settle. An aliquot of the supernatant (0.5 mL) was then counted in 5 mL scintillation cocktail. The percentage inhibition of gluconeogenesis in drug-treated rats was calculated by dividing the average cpm of ^14C-glucose in samples from drug-treated animals by those from saline-injected animals."}, "[7]": {"tested_on": "db/db Mouse", "test": "Hepatic Glycogen Levels in the db/db Mouse", "format": "in vivo", "conditions": "db/db mice", "procedure": "Db/db mice and their nondiabetic db/+ littermates were obtained at 8 weeks of age (Jackson Labs., Bar Harbor, Me.) and enrolled in the study at 11 weeks of age. […] Db/+ mice were treated with saline according to the same schedule. At 6 pm, mice were anesthetized with halothane and a small section of liver (0.5 g) was removed by the freeze-clamping technique. The liver samples were fully frozen by subsequent immersion in liquid nitrogen and then homogenized in 5 volumes of cold 0.6 N perchloric acid. Glycogen content was determined enzymatically in the homogenates by the method of Keppler and Decker (Keppler D and Decker K in Methods of Enzymatic Analysis, Bergmeyer, H U, Ed., Verlag Chemie International, Deerfield Beach, Fla., 1974)."}},
  "data": [
    {"smiles": "CSc1sc(N)nc1-c1ccc(P(=O)(O)O)o1", "note": "[Compound 3.26, 2-Amino-5-methylthio-4-[2-(5-phosphono)furanyl]thiazole]", "values": [
      {"measurement": "blood glucose lowering", "setting": "[1]; 3 mg/kg intravenous", "result": 52, "unit": "%"},
      {"measurement": "inhibition in vivo at 10 mg/kg", "setting": "[1]; Rattus norvegicus, iv, 10 mg/kg i.v., 1 hour", "result": 73, "unit": "%"},
      {"measurement": "concentration at 1 h", "setting": "[2]", "result": "56 ± 2", "unit": "µM"},
      {"measurement": "% Glucose Lowering (maximum)", "setting": "[3]", "result": 70, "unit": "%"},
      {"measurement": "lowering of blood glucose relative to saline treated controls", "setting": "[4]; 100 mg/kg oral, 6 hours post administration, p=0.01", "result": 15.4, "unit": "%"},
      {"measurement": "Blood Glucose, 7 pm", "setting": "[4]; 6 hours post 100 mg/kg oral gavage, n=8", "result": "497 ± 14", "unit": "mg/dL"},
      {"measurement": "Blood Glucose, 1 pm", "setting": "[4]; just prior to administration of 100 mg/kg by oral gavage, n=8", "result": "573 ± 26", "unit": "mg/dL"},
      {"measurement": "decrease in blood glucose relative to saline-infused controls", "setting": "[5]; 3 mg/kg/h tail vein infusion", "result": 29, "unit": "%"},
      {"measurement": "decrease in blood glucose relative to saline-infused controls", "setting": "[5]; 30 mg/kg/h tail vein infusion", "result": 39, "unit": "%"},
      {"measurement": "14C-Glucose production inhibited", "setting": "[6]", "result": 75, "unit": "%"},
      {"measurement": "liver glycogen stores", "setting": "[7]; 100 mg/kg oral at 8 am and 2 pm, liver taken 6 pm", "result": "reduction of glycogen stores to levels that approached those of nondiabetic db/+ mice"},
      {"measurement": "Liver Glycogen", "setting": "[7]; 100 mg/kg orally at 8 am and 2 pm, Evening, 6 pm", "result": "34.4 ± 7.1 (n = 3) μmol glucose/g"}
    ]}
  ]
}
